What was measured:
[1] = system: Ras^V12-transformed NIH/3T3 cells; assay: Tumor initiation of Ras^V12-transformed NIH/3T3 cells in nude mice; assay type: in vivo, mouse
Method: All experiments were approved by the IACUC of the University of California, San Francisco. Ras^V12-transformed NIH/3T3 cells were subcutaneously injected in female nude mice (Nu/Nu) at 50, 100 or 1,000 cells per flank. Palpable tumors were measured twice a week. The animals were divided into five mice per group. Pancreatic adenocarcinoma cells derived from Braf^CA and Kras^LSL-G12D mice are provided by Eric Collisson, and genotyped as described (Collison et al., Nat Med 17:500-503, 2011; Dankort et al., Genes Dev 21:379-384, 2007; Hingorani et al., Cancer Cell 4:[…], 2003). One hundred cells were orthotopically implanted in 6- to 8-week-old FVB/n mice in 20 μL 50% Matrigel using a 28.5-gauge needle. Mice were monitored for one month and were euthanized when distressed.
The drug was daily administrated into either NOD-SCID or athymic nude mice by oral gavages (OG) at 1 mg/kg or intraperitoneal (I.P) injection at 0.5 mg/kg. 10% DMSO, 10% cremophor, and 80% saline solutions were used as the solvent and vehicle control.

[2] = system: CaMKii; assay: Western blot of phospho-CaMKii in Ras-transformed NIH/3T3 cells (and human pancreatic cancer cell lines); assay type: cell-based, mouse
Method: Experimental cells were washed twice in ice-cold PBS and lysed in 1% Triton lysis buffer [25 mmol/L Tris pH 7.5, 150 mmol/L NaCl, 1% Triton X-100, 1 mmol/L EDTA, 1 mmol/L EGTA, 20 mmol/L NaF, 1 mmol/L […], and 1 mmol/L DTT] supplemented with a protease inhibitor cocktail (Roche) and cleared by centrifugation. Protein concentrations were determined by the Bio-Rad Protein Assay (Bio-Rad). Equal amounts of protein extracts were resolved using SDS-PAGE (NuPAGE; Invitrogen), transferred to a nitrocellulose membrane, and immunoblotted with primary antibodies indicated, followed by secondary antibodies labeled with either IRDye800 (Rockland) or Alexa Fluor 680 (Molecular Probes) and were visualized using a LI-COR Odyssey scanner. A complete list of primary antibodies is provided in the Extended Experimental Procedures.

With CC(=O)O[C@@]12C[C@@H](C)[C@@]3(O)C(C=C(CO)C[C@]4(O)C(=O)C(C)=C[C@@H]34)[C@@H]1C2(C)C (stereo partly drawn) [prostratin, 12-deoxyphorbol-13-acetate] the “tumorigenicity of K-Ras^V12-transformed cells” value ([1]; administered orally or intra-peritoneally, nude mice (FIG. 13D)) was “dramatically suppressed the tumorigenicity”, the “size of subcutaneous tumor derived from K-Ras^V12-NIH/3T3 cells” value ([1]; vs vehicle control (FIG. 13D-E)) was “much smaller” and the “phosphor-CaMKii in tumor derived from K-Ras^V12-NIH/3T3 cells” value ([1]; vs vehicle control (FIG. 13E)) was “greatly increased phosphor-CaMKii”. The “activation of CaMKii” value ([2]; NIH/3T3 cells transformed by K-Ras^V12-S181A mutant or H-Ras^V12 (legend FIG. 5I)) was “not K-Ras^V12-S181A mutant or H-Ras^V12”, the “levels of phospho-CaMKii” value ([2]; Ras^V12-transformed cells and human pancreatic cancer cell lines (FIG. 5H-I)) was “dramatically elevated levels of phospho-CaMKii” and the “activity of CaMKii” value ([2]; cells transformed by H-Ras^V12 or K-Ras^V12-S181D (FIG. 5I)) was “did not alter the activity of CaMKii”.
